In a melting point compilation (Tetko et al.; mined from patent text by program, amines drawn as free bases though some values may be those of a salt):

Compound `S=C1Nc2ccccc2C1(c1c[nH]c2ccccc12)C1CNc2ccccc21` (stereo not drawn) has a melting point of over 260 °C.
`CCOC(=O)c1cn(CCOC(C)=O)c2c(F)c(F)c(F)c(C)c2c1=O` gave a melting point of 192 to 193 °C.
In the case of `CCOC(=O)C(Cc1ccc(-c2ccc([N+](=O)[O-])cc2)o1)(NC(C)=O)C(=O)OCC`, the melting point is reported as 183 to 185 °C.
In the case of `O=C1Nc2ccc(Br)cc2C1c1ncnc2nn(C3CCCCC3)cc12` (stereo not drawn), the melting point is reported as 285 to 290 °C.
Compound `COc1ccc(N(CCCC(=O)O)C(=O)c2ccc(Cl)cc2)cc1-c1ccccc1` has a melting point of 114 to 116 °C.
Compound `CC(C)(C)NC(=O)N(C=O)Oc1cc(Cl)ccc1Cl` has a melting point of 101 to 102 °C.
Work on `CCC/C=C/[C@H]1CC[C@H](c2ccc(C(C)=O)cc2)CC1` yielded a melting point of 51.2 °C.
`COC(=O)c1cccc(Sc2ccccc2)c1S(C)(=O)=O` gave a melting point of 151 °C.
With `COCCOc1ccc2c(c1)OCC21C(=O)N(Cc2ccccn2)c2ccccc21` (stereo not drawn) the melting point was 94 to 95 °C.
In the case of `COc1ccc2c(-c3ccccc3)c(C(=O)O)c(=O)[nH]c2c1`, the melting point is reported as 292 to 294 °C.
Compound `O=C(O)[C@@H]1Cc2ccccc2N1C(=O)CN1CCN(Cc2ccc(Cl)cc2)CC1` has a melting point of 219 to 221 °C.
For `O=c1[nH]c2sccc2c(=O)o1`, the melting point was 233 °C.
`CCn1c(C)nc2cc(C(F)(F)F)c(N(C)C)c(N)c21` gave a melting point of 141 to 142 °C.
`CC1(C(=O)O)CCCc2cc(C3CCCCC3)c(Cl)cc21` (stereo not drawn) gave a melting point of 167 to 168 °C.
`CCOC(=O)CC(c1ccccc1)c1ccc(N2CCN(CCC3CCN(C(=O)OC(C)(C)C)CC3)C2=O)cc1` (stereo not drawn) gave a melting point of 100 to 102 °C.
For `COC(=O)CNc1ccc2c(c1)OCO2`, the melting point was 105 to 106 °C.
Work on `Cc1nn(-c2cc(Oc3ccc(N)cc3Cl)c(Cl)cc2Cl)c(=O)n1C(F)F` yielded a melting point of 161 to 162 °C.
For `CCOC(=O)Cc1c(-c2ccccc2)c2cc(CO)c(CO)cc2oc1=O`, the melting point was 130 to 131 °C.
Work on `COC(=O)CCC#Cc1cc(Cl)ccc1NS(=O)(=O)c1ccc(C(F)(F)F)cc1` yielded a melting point of 80 °C.
Compound `CC(=O)N1CC(=O)Nc2ccccc21` has a melting point of 164 to 165 °C.
`CC(=O)Nc1ccc(C2=NNC(=O)CC2)cc1[N+](=O)[O-]` gave a melting point of 223 °C.
With `CCc1cccc2c(C(CO)NC=O)c[nH]c12` (stereo not drawn) the melting point was 195 to 197 °C.
With `O=c1c2ccccc2cc(Cl)c2ccccc12` the melting point was 118 to 121 °C.
`Cc1cc(Cl)ccc1NC(=O)NCCCl` gave a melting point of 190 °C.
For `Cc1cccc(C=CCC(CCC(=O)O)(C(=O)C=Cc2ccc(Cl)cc2)c2ccccc2)c1` (stereo not drawn), the melting point was 135 to 144 °C.
With `CCOc1cc2c(Cl)ncnc2cc1OC(C)C` the melting point was 104 to 106 °C.
In the case of `COc1ccc2c(C)c(CCO)c(=O)oc2c1OC`, the melting point is reported as 113 to 114 °C.
Work on `O=C(NS(=O)(=O)c1c(F)cccc1F)N1CCC=N1` yielded a melting point of 183 °C.
In the case of `CC(=O)NC1CCc2[nH]c3ccccc3c2C1` (stereo not drawn), the melting point is reported as 170 °C.
In the case of `O=C(NC1CCC(O)CC1)C1CC1` (stereo not drawn), the melting point is reported as 220 to 222 °C.
With `CCNc1nc2c(ccc3[nH]c4cnc(C(=O)OC(C)C)c(CC)c4c32)s1` the melting point was 275 to 276 °C.
With `COc1ccc2ccc(O)c(Cl)c2c1` the melting point was 76 to 78 °C.
`COCCNc1ccc2ncnc(Nc3ccc(F)cc3F)c2c1` gave a melting point of 175 to 176 °C.
`CCc1nc2cc(F)ccc2n1C1CC2CCC(C1)N2CCCSc1ccc(F)cc1` (stereo not drawn) gave a melting point of 127 to 128 °C.
Compound `COc1cc2ccc(CC(=O)O)cc2cc1OC` has a melting point of 115 to 117 °C.
For `CCCCOC(=O)Cc1ccc(N[C@@H](CCC(N)=O)C(=O)O)cc1`, the melting point was 177 to 179 °C.
Work on `CCCN(C(N)=S)C(c1ccncc1)C1CC1` (stereo not drawn) yielded a melting point of 171 °C.
For `O=S(=O)(Nc1nnc(Cl)cc1OCc1cccnc1)c1cccc(Cl)c1Cl`, the melting point was 216 to 217 °C.
In the case of `c1cnc2c(c1)-c1ncccc1C2(Cc1ccncc1)Cc1ccncc1`, the melting point is reported as 133 to 137 °C.
Compound `CC(C(=O)O)c1ccc2[nH]ncc2c1` (stereo not drawn) has a melting point of 91 to 96 °C.
With `COc1cc(Nc2c(C#N)cnc3cc4cc(OC)c(OC)cc4cc23)c(C)cc1Cl` the melting point was 171 to 173 °C.
`CC(C)(C)OC(=O)N1CCN2C(=O)N(c3cc(Cl)cc(Cl)c3)C(=O)C2(Cc2ccc(Br)cc2)C1` (stereo not drawn) gave a melting point of 79.5 °C.
`NC1N=C(c2ccccc2)c2ccccc2NC1=O` (stereo not drawn) gave a melting point of 196 to 197 °C.
`CCOC(=O)c1cn(C2CC2)c2c(F)c(F)c(F)c(CC)c2c1=O` showed a melting point of 139 to 140 °C.
`CNC(=O)c1ccc(-c2ccc(OC)c(-c3cccc([N+](=O)[O-])c3)c2)cc1` gave a melting point of 171 to 172 °C.
In the case of `CCOC(=O)c1cn2c3c(c(F)c(F)cc3c1=O)OCC2C` (stereo not drawn), the melting point is reported as 257 to 258 °C.
With `CCOC(=O)c1c(O)c2cc(F)ccc2c(=O)n1CC1CC1` the melting point was 61 to 62 °C.
Compound `O=c1c2ccc(Cl)cc2oc2c(OCc3ccccc3)cccc12` has a melting point of 154 °C.
With `CC(C)(C)OC(=O)N1C(COc2noc3ccc(Cl)cc23)COC1(C)C` (stereo not drawn) the melting point was 117 to 118 °C.
Work on `COc1cccc(CNC(=O)c2nc3ccc(C#N)cc3c(=O)[nH]2)c1` yielded a melting point of 206 to 208 °C.
Work on `COC(=O)c1cc(Cl)sc1S(=O)(=O)Cl` yielded a melting point of 95 to 97 °C.
`CCOC(=O)Nc1ccc2c(c1)CCC2=O` gave a melting point of 181 to 182 °C.
Compound `Cc1c(Sc2ccc(Cl)cc2)nn(-c2ccc(O)cc2)c(=O)c1C#N` has a melting point of 261 to 263 °C.
In the case of `O=C1NC(O)c2c1c1c3ccccc3[nH]c1c1[nH]c3ccccc3c21` (stereo not drawn), the melting point is reported as over 300 °C.
For `N#Cc1nn(-c2c(Cl)cc(C(F)(F)F)cc2Cl)cc1I`, the melting point was 83 to 84 °C.
For `CCOC(=O)N=P(c1ccccc1)(c1ccccc1)c1ccccc1CN1CCCC1`, the melting point was 120 to 122 °C.
Compound `BrCCCCCc1nnnn1C1CCCCC1` has a melting point of 57 to 59 °C.
`CC12CCC(C(=Cc3ccc(CI)cc3)C1=O)C2(C)C` (stereo not drawn) gave a melting point of 108 °C.
For `CCCc1c(OCC(O)COc2ccc3c(=O)cc(C(=O)O)sc3c2CCC)ccc(C(C)=O)c1O` (stereo not drawn), the melting point was 280 to 281 °C.
`CCCCNC(=O)NS(=O)(=O)Cc1c(C(=O)OC)cccc1[N+](=O)[O-]` showed a melting point of 144 to 150 °C.
`CCOC(=O)c1cc(NCc2ccccc2)c(OCC(F)(F)F)c(S(N)(=O)=O)c1` showed a melting point of 163 to 165 °C.
With `N#Cc1cc2c(nc1Cl)CCCCC2` the melting point was 126 to 127 °C.
For `O=c1cc(-c2ccc(OCCOCCOCCOc3ccc(-c4cc(=O)c5c(O)cc(O)cc5o4)cc3)cc2)oc2cc(O)cc(O)c12`, the melting point was 143 to 145 °C.
Compound `CN(C)C(=O)N1CCC(Nc2ncc3ncnc(Nc4ccc(F)c(Cl)c4)c3n2)CC1` has a melting point of 187 to 188 °C.
Compound `CCCCCCCCCCCCCCCCCC(O)c1ccc(Cl)c(C(=O)O)c1` (stereo not drawn) has a melting point of 106 to 107 °C.
`CN1CC(C(=O)COC(=O)c2ccncc2)CC2c3cccc4[nH]cc(c34)CC21` (stereo not drawn) showed a melting point of 158 to 161 °C.
Compound `COc1ccc(NC(=O)Nc2ccccc2)cc1NC(=S)Nc1cc(Cl)cc(Cl)c1` has a melting point of 218 to 219 °C.
`COc1cc(C(C)=O)ccc1OCCCCN1C2CCC1CC(c1n[nH]c3cc(F)ccc13)C2` (stereo not drawn) showed a melting point of 148 to 149 °C.
`Cc1cc(O)c2c(c1)CCCC2` showed a melting point of 95 to 96 °C.
`Cc1cc(C(C)(C)C)c(O)c(C)c1CC(=O)N1CCN(C(=O)Cc2c(C)cc(C(C)(C)C)c(O)c2C)CC1` gave a melting point of 305 to 310 °C.
`CCCCCCCCN=C1SC(=CC(=O)O)C(=O)N1CCCCCCCC` gave a melting point of 57 to 61 °C.
`NS(=O)(=O)c1ccc(N2CCN(CCC3C=Cc4ccccc43)CC2)cc1` (stereo not drawn) showed a melting point of 181 °C.
Compound `CCOC(=O)c1ccc(OCCC2CCN(c3ccc(F)nn3)CC2)cc1` has a melting point of 132 °C.
In the case of `CC(C)(C)OC(=O)Nc1ccc(C(=O)N2CCC(c3[nH]nc4c3C(=O)c3c(NC(=O)NN5CCOCC5)cccc3-4)CC2)cc1`, the melting point is reported as 212 to 214 °C.
Work on `O=C(O)CCC(=O)c1ccc(NC(=O)CCN2CCC(c3ccccc3)CC2)cc1` yielded a melting point of 237 to 238 °C.
With `CN(C)c1ccc(-c2nnc(N(C)C)nc2-c2ccc(N(C)C)cc2)cc1` the melting point was 170 to 172 °C.
`O=C1c2ccccc2-c2cc(O)c(Cl)c(Cl)c21` gave a melting point of 276 to 284 °C.
`O=c1oc(-c2snnc2C2CC2)nc2ccccc12` gave a melting point of 164 to 165 °C.
Work on `CN(C)Cc1ccccc1-c1ccc(C(=O)N2Cc3ccc(C(=O)NCc4cccnc4)n3Cc3ccccc32)cc1` yielded a melting point of 95 to 104 °C.
Compound `CC(=O)Nc1ccc(F)c(-c2ccncc2)n1` has a melting point of 254 to 256 °C.
Compound `CSC1CCC2C3CCC4=CC(=O)C=CC4(C)C3(F)C(O)CC12C` (stereo not drawn) has a melting point of 235 to 236 °C.
With `CCOC(=O)c1nnc(NS(=O)(=O)c2ccc(NC(C)=O)cc2)s1` the melting point was 201 to 202 °C.
In the case of `CN1C(=S)NN2CCCC21c1ccccc1` (stereo not drawn), the melting point is reported as 148 to 151 °C.
Compound `CCOC(=O)c1nc(Cl)n2c1c(Cl)nc1ccccc12` has a melting point of 132 to 135 °C.
Compound `CCc1cccc(CC)c1NC(=O)N(CC1CCCCC1)C1CCC(c2ccccc2)CC1` (stereo not drawn) has a melting point of 166 to 168 °C.
In the case of `c1ccc(Cn2ccnc2CC2COc3ccccc3O2)cc1` (stereo not drawn), the melting point is reported as 105 to 107 °C.
Compound `Cc1n[nH]c(COc2nn3c(-c4ccccc4)nnc3cc2-c2ccccc2)n1` has a melting point of 233 to 235 °C.
In the case of `CCC(=O)CCC(=O)c1ccc(F)cc1`, the melting point is reported as 56 to 57 °C.
Work on `Cn1ccc(-c2ccc3c(ccn3-c3ccc(F)cc3)c2)n1` yielded a melting point of 123 to 125 °C.
`CC(=O)N1CCC(CNc2nc3ccccc3s2)CC1` showed a melting point of 138 °C.
With `CC(N)c1nc2cccc(Cl)c2c(=O)n1-c1cc(F)cc(F)c1` (stereo not drawn) the melting point was 200 to 202 °C.
`CC[C@]12CC[C@H]3[C@@H](CC(C)C4=CC(=O)CC[C@@H]43)[C@@H]1CCC2=O` (stereo partly drawn) gave a melting point of 141 to 149 °C.
For `Cc1cccc2c(C(=O)O)cn(C)c12`, the melting point was 243 °C.
Compound `COc1cc2oc(=O)c3c(c2cc1OC)CCNC3` has a melting point of 186 to 188 °C.
In the case of `O=C(O)C1=Cc2ccccc2OC1C(F)(F)F` (stereo not drawn), the melting point is reported as 152 to 153 °C.
Work on `NS(=O)(=O)c1ccccc1S(N)(=O)=O` yielded a melting point of 250 °C.
In the case of `Cc1ccc(-c2[nH]c(C(F)(F)F)nc2-c2ccc(S(C)(=O)=O)cc2)cc1`, the melting point is reported as 234 to 238 °C.
Work on `Cc1ccc(C(=O)c2c(Cl)cc(Cl)cc2Cl)cc1C(C)c1ccc(=O)[nH]n1` (stereo not drawn) yielded a melting point of 221 to 222 °C.
Compound `CN(C)Cc1cccc(NCCCNc2nc(N)nn2C)c1` has a melting point of 101 to 102 °C.
`CCOC(=O)C1=C(C)NC(COC(C)=O)=C(C(=O)OCC)C1c1ccccc1OC` (stereo not drawn) gave a melting point of 84 to 86 °C.
With `CC(=O)Nc1ccc(C(=O)SC[C@@H](C)C(=O)N2CSC[C@H]2C(=O)O)cc1` the melting point was 206 to 207 °C.
Work on `CCc1cc(CC)c2ccc(=O)n(CCN(C)C)c2n1` yielded a melting point of 59.5 to 61 °C.
Work on `Cn1c(C(=O)N[C@H]2CCCC[C@H]2C(=O)N[C@H](C#N)C2CC2)cc2ccccc21` yielded a melting point of 242 to 246 °C.
